Source: publication PMC11033495 (Pharmacology Research & Perspectives, 2024)
Read-outs that look alike come from different tables or passages of the source.

Key:
CYP3A4 [1] = assay type: in vivo; conditions: oral TRZ 1 mg/kg; hCYP3A mice fed HCD versus ND
CYP3A4 [2] = test: Inhibition of TRZ hydroxylation by KCZ in pooled liver microsomes; assay type: biochemical, hCYP3A mice; conditions: 0.01, 0.1 and 1 μM KCZ; pooled liver microsomes of ND and HCD mice
CYP3A4 [3] = test: In vivo DDI study: KCZ pretreatment before oral TRZ in mice fed ND or HCD; design: species or system hCYP3A mice; conditions: for Percentage of decline in AUCRα-OH: 40 mg/kg KCZ oral 15 min before oral TRZ 1 mg/kg, versus vehicle
[4] = assay type: in vivo, hCYP3A mice; conditions: mean ± SD, n = 4
CYP3A4 [5] = test: Plasma 4β-OH cholesterol as biomarker of CYP3A4 activity in mice fed ND or HCD; assay type: in vivo; conditions: hCYP3A mice
[6] = both ND and HCD mice, 40 mg/kg KCZ oral, TRZ 1 mg/kg oral
[7] = hCYP3A mice fed CA-diet (CE-2 + 0.5% CA) for 1 week
[8] = hCYP3A mice fed ND (CE-2) for 1 week

OCc1nnc2n1-c1ccc(Cl)cc1C(c1ccccc1Cl)=NC2 [α‐OH TRZ, α‐hydroxy triazolam]
Plasma concentrations and AUC values in HCD mice compared with ND mice (CYP3A4 [1]): lower

CC(=O)N1CCN(c2ccc(OCC3COC(Cn4ccnc4)(c4ccc(Cl)cc4Cl)O3)cc2)CC1 (stereo not drawn) [KCZ, ketoconazole]
Effect on microsomal activity of TRZ hydroxylation in liver (CYP3A4 [2]): inhibited
Percentage of decline in AUCRα-OH (CYP3A4 [3]; HCD mice): 46%
Percentage of decline in AUCRα-OH (CYP3A4 [3]; ND mice): 49%
Effect of pretreatment on plasma concentrations of TRZ (CYP3A4 [3]; [6]): tended to increase
Effect of pretreatment on plasma concentrations of α-OH TRZ (CYP3A4 [3]; [6]): decrease

C[C@H](CCC(=O)O)[C@H]1CC[C@H]2[C@@H]3[C@H](O)C[C@@H]4C[C@H](O)CC[C@]4(C)[C@H]3C[C@H](O)[C@]12C [CA, cholic acid]
Plasma concentration [4, 7]: 1.35 ± 1.869 µg/mL
Plasma concentration [4, 8]: 0.312 ± 0.243 µg/mL

CC(C)CCC[C@@H](C)[C@H]1CC[C@H]2[C@@H]3CC=C4[C@@H](O)[C@@H](O)CC[C@]4(C)[C@H]3CC[C@]12C [4β‐OH cholesterol, 4β‐Hydroxy (4β‐OH) cholesterol]
Plasma concentration ratio (4β-OH cholesterol/cholesterol), HCD versus ND (CYP3A4 [5]): not significantly different
Plasma level in mice fed HCD compared with mice fed ND (CYP3A4 [5]; HCD versus ND): significantly higher
Increase of plasma level by HCD (CYP3A4 [5]; HCD versus ND, Figure S4A): about twofold

Cc1nnc2n1-c1ccc(Cl)cc1C(c1ccccc1Cl)=NC2 [TRZ, triazolam, reference compound]
Plasma concentrations and AUC values in HCD mice compared with ND mice (CYP3A4 [1]): lower

CC(C)CCC[C@@H](C)[C@H]1CC[C@H]2[C@@H]3CC=C4C[C@@H](O)CC[C@]4(C)[C@H]3CC[C@]12C [Cholesterol, cholesterol]
Plasma concentration [4, 7]: 2250 ± 336 µg/mL
Plasma concentration [4, 8]: 1361 ± 152 µg/mL

Cc1nnc2n1-c1ccc(Cl)cc1C(c1ccccc1Cl)=NC2O (stereo not drawn) [4‐OH TRZ, 4‐hydroxy triazolam]
Plasma concentrations and AUC values in HCD mice compared with ND mice (CYP3A4 [1]): lower
